Values quoted from earlier work in patent US7291352B2 (HerbalScience LLC, priority 2001, dated 2007).

Tested on: gamma-aminobutyric acid (GABA) receptor uptake
Conditions: in micromolar concentrations

| SMILES | inhibition of GABA receptor uptake |
| --- | --- |
| CN1CCC=C(C(=O)O)C1 [arecaidine] | inhibit |
| O=C(O)C1=CCCNC1 [guvacine] | inhibit |
